Measurements published in ChEMBL document CHEMBL1133422, “The S-alkyl chain length as a determinant of the anti-leukemic activity of cysteine chloromethyl ketone compounds” (Bioorg Med Chem Lett, 2000).

Key:
[1] = test system: MOLT-3; assay: Anti-leukemic activity against Molt-3 (T-lineage ALL, human acute lymphoblastic leukemia) cell line.; assay type: functional, cell-based
[2] = test system: NALM-6; assay: Anti-leukemic activity against Nalm-6 (B-lineage ALL, human acute lymphoblastic leukemia) cell line.; assay type: functional, cell-based

| SMILES | IC50 [1] | IC50 [2] |
| --- | --- | --- |
| CCCCCCSC[C@H](NC(C)=O)C(=O)CCl | 0.7 µM | 3.3 µM |
| CCCCCCCCSC[C@H](NC(C)=O)C(=O)CCl | 4.1 µM | 5.6 µM |
| CCCCCCCCCCSC[C@H](NC(C)=O)C(=O)CCl | 3.4 µM | 4.7 µM |
| CCCCCCCCCCCCCSC[C@H](NC(C)=O)C(=O)CCl | > 100 µM | > 100 µM |
| CCCCCCCCCSC[C@H](NC(C)=O)C(=O)CCl | 6.7 µM | 7.3 µM |
| CCSC[C@H](NC(C)=O)C(=O)CCl | 99.9 µM | 52.8 µM |
| CCCCCCCCCCCCCCCCSC[C@H](NC(C)=O)C(=O)CCl | 17.3 µM | 16 µM |
| CCCCCCCCCCCSC[C@H](NC(C)=O)C(=O)CCl | 3 µM | 1.7 µM |
| CCCSC[C@H](NC(C)=O)C(=O)CCl | 8 µM | 6.9 µM |
| CCCCCCCCCCCCCCSC[C@H](NC(C)=O)C(=O)CCl | 8.8 µM | 8.7 µM |
| CCCCCCCCCCCCCCCCCCCCCCSC[C@H](NC(C)=O)C(=O)CCl | > 100 µM | > 100 µM |
| CSC[C@H](NC(C)=O)C(=O)CCl | 80.8 µM | 30.3 µM |
| CCCCCCCSC[C@H](NC(C)=O)C(=O)CCl | 2.5 µM | 4.8 µM |
| CCCCCCCCCCCCCCCCCCSC[C@H](NC(C)=O)C(=O)CCl | > 100 µM | > 100 µM |
| CCCCCCCCCCCCCCCCCCCCSC[C@H](NC(C)=O)C(=O)CCl | > 100 µM | > 100 µM |
| CCCCCSC[C@H](NC(C)=O)C(=O)CCl | 5.4 µM | 5.8 µM |
| CCCCCCCCCCCCCCCSC[C@H](NC(C)=O)C(=O)CCl | 8.6 µM | 8.9 µM |
| CCCCSC[C@H](NC(C)=O)C(=O)CCl | 5.6 µM | 41.4 µM |
